Consider one compound from patent US11634397B2, “Process and intermediates for the preparation of Fluensulfone” (ADAMA MAKHTESHIM LTD., priority 2018, dated 2023).

The nature of this data set: Solubility of 2-mercaptothiazole estimated in a variety of solvents at room temperature. The note with it: stirred overnight. Type of data set: physicochemical. On the procedure: The solubility of 2-mercaptothiazole was estimated in a variety of solvents at room temperature. Large amount of 2-mercaptothiazole was added to the tested solvent. The mixture was stirred overnight. The residual solid was removed by filtration. Then the solution was analyzed by quantitative analysis vs. analytical standard to determine the concentration of the 2-mercaptothiazole.

On to `Sc1nccs1` [2-mercaptothiazole], for which the “Solubility of 2-mercaptothiazole” value reads like this: (solvent 1,2-dichlorobenzene) 1.91 wt %; (solvent 1,2-dichloroethane) 8.43 wt %; (solvent CPME (cyclopentyl methyl ether)) 6.5 wt %; (solvent IBN (iso-butyronitrile)) 20.2 wt %; (solvent IPAc (isopropyl acetate)) 14.8 wt %; (solvent MCB (mono-chlorobenzene)) 2.4 wt %. Besides, the “Solubility of 2-mercaptothiazole” value (solvent NBN (n-butyronitrile)) is 28.9 wt %, the “Solubility of 2-mercaptothiazole” value (solvent pentanol) is reported as 19.1 wt % and the “Solubility of 2-mercaptothiazole” value (solvent toluene) is given as 2.2 wt %.
